Data from US20120238488A1, “COMPOUNDS AND METHODS FOR TREATING NEOPLASIA” (priority 2009, published 2012).
pIC50: −log10 of the molar value.

Columns and labels:
ERVK (Lung) = assay: SRB assay, ERVK; format: cell-based, human; conditions: 48 h; for TGI / GI50: ERVK, SRB; for CC50 / GI50: Homo sapiens; for CC50: read-out: LC50
Procedure: (§1) SRB assays were performed according to standard National Cancer Institute Guidelines. Briefly, human tumor cells from different cancer panels were seeded into 96 well plates in 100 μL (plating densities ranging from 5-40,000 cells/well depending on the doubling time of individual cell lines) in serum-containing media for twenty-four hours prior to the addition of the compounds to be assayed. After 24 hours, one plate of each cell line was fixed in situ with trichloroacetic acid (TCA). The fixed slides were used to determine the cell population for each cell line at the time of drug addition (Tz). Each compound to be tested was solubilized in DMSO and the desired concentration was then added to the medium and diluted serially 1:10 to provide a total of five or ten drug concentrations plus control (in a final volume of 200 μL). The starting dose before any dilution was 100 uM for all compounds.
(§2) Following drug addition, each culture was incubated for forty-eight hours. The assay was terminated with the addition of cold TCA. The supernatant was discarded, and the plates were washed with tap water and air dried. Sulforhodamine B (SRB) solution was then added to each well. After staining, the bound stain was solubilized and the absorbance was read on an automated plate reader at a wavelength of 515 nm.
(§3) Using the absorbance measurements [time zero, (Tz), control growth, (C), and test growth in the presence of drug at the ten concentration levels (Ti)], the percentage growth was calculated at each of the drug concentrations levels. Percentage growth inhibition was calculated as:
(§4) [(Ti−Tz)/(C−Tz)]×100 for concentrations for which Ti>/=Tz
(§5) [(Ti−Tz)/Tz]×100 for concentrations for which Ti<Tz.
(§6) Three dose response parameters were calculated for each experimental agent. Growth inhibition of 50% (GI50) was calculated from [(Ti−Tz)/(C−Tz)]×100=50, which was the drug concentration resulting in a 50% reduction in the net protein increase (as measured by SRB staining) in control cells during the drug. The drug concentration resulting in total growth inhibition (TGI) was calculated from Ti=Tz. The LC50 (concentration of drug resulting in a 50% reduction in the measured protein at the end of the drug treatment as compared to that at the beginning) indicating a net loss of cells following treatment was calculated from [(Ti−Tz)/Tz]×100=−50.
(§7) Values were calculated for each of these three parameters when the level of activity was reached; however, if the effect was not reached or was exceeded, the value for that parameter was expressed as greater or less than the maximum or minimum concentration tested.
(§8) Table 4 summarizes results characterizing the effects of compound Nos. 120, 12, 61, 1, and 56 on GI50, which measures the cell growth inhibitory power of the compound, TGI, which measures cytostatic effect (TGI) and LC50, which signifies cytotoxic effect. Each of these parameters in Table 4 was calculated in a sulforhodamine B (SRB) assay, which provides a colorimetric measure of a compound's anti-cancer activity. SRB assays were performed with compounds of the invention in 22 different cell lines (shaded in light gray in Table 4), which represent nine different tumor panels (lung, melanoma, ovary, prostate, CNS, breast, pancreas colon and renal). Ouabain and digoxin were used as controls. Paclitaxel was added as a non-Na^+K^+-ATPase inhibitor control.

DU145 (Prostate) = assay: SRB assay, DU145; format: cell-based, human; conditions: for TGI / GI50: DU145, SRB, 48 h; for CC50 / GI50: Homo sapiens; for CC50: DU-145, 48 h, read-out: LC50; for GI50: DU-145
Procedure: as §1, §2, §3, §4, §5, §6, §7, §8

PCJ (Prostate) = assay: SRB assay, PCJ; format: cell-based; conditions: Homo sapiens, 48 h; for CC50: read-out: LC50; for GI50 / IC (TGI): PCJ, SRB
Procedure: as §1, §2, §3, §4, §5, §6, §7, §8

HCT116 (Colon) = assay: SRB assay, HCT116; format: cell-based; conditions: Homo sapiens; for CC50: HCT-116, 48 h, read-out: LC50; for GI50 / IC (TGI): HCT-116, HCT116, SRB, 48 h
Procedure: as §1, §2, §3, §4, §5, §6, §7, §8

SF268 (CNS) = assay: SRB assay, SF268; format: cell-based; conditions: Homo sapiens; for CC50: SF-268, 48 h, read-out: LC50; for GI50 / IC (TGI): SF-268, SF268, SRB, 48 h; for GI50: read-out: GI50; for IC (TGI): read-out: TGI
Procedure: as §1, §2, §3, §4, §5, §6, §7, §8

MB435 (Melanoma) = assay: SRB assay, MB435; format: cell-based, human; conditions: 48 h; for CC50 / GI50: Homo sapiens; for CC50: read-out: LC50; for GI50 / TGI: MB435, SRB
Procedure: as §1, §2, §3, §4, §5, §6, §7, §8

CAKJ1 (Renal) = assay: SRB assay, CAKJ1; format: cell-based, human; conditions: 48 h; for TGI / GI50: CAKJ1, SRB; for CC50 / GI50: Homo sapiens; for CC50: read-out: LC50
Procedure: as §1, §2, §3, §4, §5, §6, §7, §8

ADRRES (Ovary) = assay: SRB assay, ADRRES (multidrug resistant NCI-ADR-RES); format: cell-based, human; conditions: for TGI / GI50: ADRRES; for TGI / CC50 / GI50: 48 h; for CC50 / GI50: Homo sapiens, NCI/ADR-RES; for CC50: read-out: LC50; for anti-tumor action in multidrug resistant cell line NCI-ADR-RES: cells express high levels of MDR1 and P-glycoprotein
Procedure: NCI-ADR-RES cells have been classified as ovarian cancer cells by the National Cancer Institute.
as §1, §2, §3, §4, §5, §6, §7, §8
Table 4 also presents results with Compound Nos. 120, 12, 61, 1, and 56 in a well characterized drug resistant cell line, NCI-ADR-RES, that expresses high levels of MDR1 and P-glycoprotein.

[1] = system: Na+/K+-ATPase (Adenosine 5′-Triphosphatase isolated from porcine cerebral cortex); assay: Na+/K+-ATPase inhibitory activity, colorimetric Adenosine 5'-Triphosphatase Enzymatic Assay; format: biochemical; conditions: for pIC50: read-out: Na+K+ ATPase inhibitory activity IC50
Procedure: The inhibitory effect of a compound of the invention on ATPase activity was assessed in vitro using the colorimetric Adenosine 5′-Triphosphatase Enzymatic Assay of Sigma (St. Louis, Mo.) according to the manufacturer's instructions. This assay utilizes Adenosine 5′-Triphosphatase isolated from porcine cerebral cortex. Each reaction was performed in a final volume of 250 μl using 0.5 units/ml enzyme in the presence of different inhibitors. […] IC50 values were determined using the Origin® program software (OriginLab, Northampton, Mass.).

A549 (Lung) = assay: SRB assay, A549; format: cell-based, human; conditions: for TGI / GI50: A549, SRB, 48 h; for CC50 / GI50: Homo sapiens; for CC50: A549, 48 h, read-out: LC50
Procedure: as §1, §2, §3, §4, §5, §6, §7, §8

SKMEL28 (Melanoma) = assay: SRB assay, SKMEL28; format: cell-based, human; conditions: for CC50 / GI50: Homo sapiens; for CC50: SK-MEL-28, 48 h, read-out: LC50; for GI50: SK-MEL-28; for GI50 / TGI: SKMEL28, SRB, 48 h
Procedure: as §1, §2, §3, §4, §5, §6, §7, §8

OVCAR3 (Ovary) = assay: SRB assay, OVCAR3; format: cell-based, human; conditions: for CC50 / GI50: Homo sapiens; for CC50: OVCAR-3, 48 h, read-out: LC50; for GI50: OVCAR-3; for GI50 / TGI: OVCAR3, SRB, 48 h
Procedure: as §1, §2, §3, §4, §5, §6, §7, §8

OVCAR5 (Ovary) = assay: SRB assay, OVCAR5; format: cell-based, human; conditions: for CC50 / GI50: Homo sapiens; for CC50: OVCAR-5, 48 h, read-out: LC50; for GI50: OVCAR-5; for GI50 / TGI: OVCAR5, SRB, 48 h
Procedure: as §1, §2, §3, §4, §5, §6, §7, §8

`C[C@]12CCC(=NOCCN)CC1CCC1C2CC[C@]2(C)C(=O)CCC12` (stereo partly drawn) [Compound 1, (10S,13S)-3-(2-aminoethoxyimino)-10,13-dimethyltetradecahydro-1H-cyclopenta[a]phenanthren-17(2H)-one] gave a TGI (ERVK (Lung)) of 0.6406 µM, a CC50 (ERVK (Lung)) of 0.943 µM and a GI50 (ERVK (Lung)) of 0.338 µM. For the same molecule, the TGI (DU145 (Prostate)) was 0.5882 µM, the CC50 (DU145 (Prostate)) was 0.844 µM and the GI50 (DU145 (Prostate)) was 0.332 µM. For the same molecule, the CC50 (PCJ (Prostate)) was 0.897 µM, the GI50 (PCJ (Prostate)) was 0.253 µM and the IC (TGI) (PCJ (Prostate)) was 0.575 µM. It also gave a CC50 (HCT116 (Colon)) of 8.11 µM, a GI50 (HCT116 (Colon)) of 0.364 µM and an IC (TGI) (HCT116 (Colon)) of 1.31 µM. The CC50 (SF268 (CNS)) was 0.908 µM, the GI50 (SF268 (CNS)) was 0.385 µM and the IC (TGI) (SF268 (CNS)) was 0.647 µM. It also gave a CC50 (MB435 (Melanoma)) of 6.38 µM, a GI50 (MB435 (Melanoma)) of 0.599 µM and a TGI (MB435 (Melanoma)) of 1.3995 µM. The TGI (CAKJ1 (Renal)) was 0.6430 µM, the CC50 (CAKJ1 (Renal)) was 0.948 µM and the GI50 (CAKJ1 (Renal)) was 0.338 µM. The TGI (ADRRES (Ovary); SRB) was 0.6479 µM, the CC50 (ADRRES (Ovary)) was 0.944 µM and the GI50 (ADRRES (Ovary); SRB) was 0.321 µM. For the same molecule, the “anti-tumor action in multidrug resistant cell line NCI-ADR-RES” value (ADRRES (Ovary); SRB) was “potent anti-tumor action”, the “Na+K+ ATPase inhibitory activity (in words)” value [1] was “very potent Na+K+ ATPase inhibitors” and the pIC50 [1] was 6.91. The TGI (A549 (Lung)) was 0.5825 µM, the CC50 (A549 (Lung)) was 0.85 µM and the GI50 (A549 (Lung)) was 0.315 µM. It also gave a CC50 (SKMEL28 (Melanoma)) of 7.54 µM, a GI50 (SKMEL28 (Melanoma)) of 0.517 µM and a TGI (SKMEL28 (Melanoma)) of 0.9284 µM. It also gave a CC50 (OVCAR3 (Ovary)) of 0.984 µM, a GI50 (OVCAR3 (Ovary)) of 0.291 µM and a TGI (OVCAR3 (Ovary)) of 0.6375 µM. It also gave a CC50 (OVCAR5 (Ovary)) of 7.33 µM, a GI50 (OVCAR5 (Ovary)) of 0.834 µM and a TGI (OVCAR5 (Ovary)) of 3.7630 µM.

Work on `C[C@]12CCC(=NOCCN)C=C1CCC1C2CC[C@]2(C)C(=O)CCC12` (stereo partly drawn) [Compound 12, (10R,13S)-3-(2-aminoethoxyimino)-10,13-dimethyl-2,3,7,8,9,10,11,12,13,14,15,16-dodecahydro-1H-cyclopenta[a]phenanthren-17(6H)-one] yielded a TGI (ERVK (Lung)) of 5.13 µM, a CC50 (ERVK (Lung)) of 8.8 µM and a GI50 (ERVK (Lung)) of 1.45 µM. The TGI (DU145 (Prostate)) was 5.75 µM, the CC50 (DU145 (Prostate)) was 8.45 µM and the GI50 (DU145 (Prostate)) was 3.04 µM. It also gave a CC50 (PCJ (Prostate)) of 8.52 µM, a GI50 (PCJ (Prostate)) of 3.54 µM and an IC (TGI) (PCJ (Prostate)) of 6.03 µM. It also gave a CC50 (HCT116 (Colon)) of 10.7 µM, a GI50 (HCT116 (Colon)) of 4.06 µM and an IC (TGI) (HCT116 (Colon)) of 7.38 µM. For the same molecule, the CC50 (SF268 (CNS)) was 8.51 µM, the GI50 (SF268 (CNS)) was 2.84 µM and the IC (TGI) (SF268 (CNS)) was 5.67 µM. For the same molecule, the CC50 (MB435 (Melanoma)) was 75.8 µM, the GI50 (MB435 (Melanoma)) was 5.45 µM and the TGI (MB435 (Melanoma)) was 10.24 µM. For the same molecule, the TGI (CAKJ1 (Renal)) was 6.56 µM, the CC50 (CAKJ1 (Renal)) was 9.44 µM and the GI50 (CAKJ1 (Renal)) was 3.69 µM. It also gave a TGI (ADRRES (Ovary); SRB) of 6.58 µM, a CC50 (ADRRES (Ovary)) of 10.1 µM and a GI50 (ADRRES (Ovary); SRB) of 3.08 µM. The “GI50 in NCI-ADR-RES cells compared to non-resistant MCF-7 cells” value (ADRRES (Ovary); SRB) was “the same GI50 value”, the “anti-tumor action in multidrug resistant cell line NCI-ADR-RES” value (ADRRES (Ovary); SRB) was “potent anti-tumor action” and the “Na+K+ ATPase inhibitory activity (in words)” value [1] was “strong Na+K+ ATPase inhibitory activities”. It also gave a pIC50 [1] of 6.43, a TGI (A549 (Lung)) of 6.90 µM and a CC50 (A549 (Lung)) of 9.73 µM. For the same molecule, the GI50 (A549 (Lung)) was 4.08 µM, the CC50 (SKMEL28 (Melanoma)) was 85.6 µM and the GI50 (SKMEL28 (Melanoma)) was 8.39 µM. For the same molecule, the TGI (SKMEL28 (Melanoma)) was 40.16 µM, the CC50 (OVCAR3 (Ovary)) was 88.8 µM and the GI50 (OVCAR3 (Ovary)) was 3.01 µM. The TGI (OVCAR3 (Ovary)) was 28.79 µM, the CC50 (OVCAR5 (Ovary)) was 63.6 µM and the GI50 (OVCAR5 (Ovary)) was 5.3 µM. For the same molecule, the TGI (OVCAR5 (Ovary)) was 9.02 µM.
